PMC7831505, “Monosubstituted Acetophenone Thiosemicarbazones as Potent Inhibitors of Tyrosinase: Synthesis, Inhibitory Studies, and Molecular Docking” (Pharmaceuticals, 2021)
Values joined by “and” are separate entries in the source; they are usually repeats but may differ in a detail not shown here. Identical values can stand only once.

What was measured:
mushroom tyrosinase [1] = experiment: Tyrosinase enzymatic assay (diphenolase activity, dose-response IC50); assay type: biochemical, Agaricus bisporus; conditions: for IC50: L-DOPA 1 mM as substrate, pH 6.8, 25 °C, n = 3; for Ratio of IC50 of Kojic Acid to IC50 of TSC: mushroom tyrosinase diphenolase activity
Experimental: In order to determine the IC50, dose–response analysis for all investigated compounds was performed. […] The enzyme was isolated from Agaricus bisporus, purchased from a local supplier in Wroclaw, and prepared as described in our previous papers, according to known procedures reported in the literature. The full description of enzyme preparation is included in the Supplementary Materials (Section 2). […] L-DOPA was dissolved in a 0.15 mM phosphoric (V) acid solution to a concentration of 5 mM. […] The isolated tyrosinase solution (0.5 mg/mL, 40,000 U/mg) was diluted 10 times in sodium phosphate buffer (0,1 M, pH 6.8). […] The optimal ionic strength and pH for tyrosinase activity were provided by 0.1 M sodium phosphate buffer (pH 6.8). […] The control sample contained the same reagents as the test samples except for the substrate. […] The concentration of L-3,4-dihydroxyphenylalanine (L-DOPA) was 1 mM in all the cases.

[2] = tested on: B16F10 murine melanoma cells; experiment: Cell proliferation assay (MTT); assay type: cell-based; conditions: read-out: Inhibition of Cell Proliferation IC50
Experimental: In the presence of α-MSH, the cells were treated with the inhibitors after 24 h. […] Kojic acid was used as a positive control, and dimethyl sulfoxide (DMSO) was used as a solvent control. Melanin content was measured spectrophotometrically at 405 nm. […] Cells were maintained in 5% CO2 at 37 °C. Cell viability was estimated using the MTT colorimetric assay as described in our previous papers and by Bellei et al.. […] Kojic acid and DMSO were used as controls. MTT was added to wells (0.625 mg/mL, Sigma-Aldrich, Taufkirchen, Germany) for the last 4 h. Then, lysing buffer was added to dissolve insoluble formazan. The absorbance was measured (λ = 570 nm) using a Thermo Lab Multiscan RC microplate reader.

[3] = tested on: B16F10 murine melanoma cells; experiment: Measurement of melanin production in α-MSH-stimulated cells; assay type: cell-based; conditions: for IC50: B16F10 cells stimulated with α-MSH 100 nM, 48 h with inhibitor, absorbance 405 nm, read-out: Inhibition of Melanin Production IC50
Experimental: In the presence of α-MSH, the cells were treated with the inhibitors after 24 h. […] Kojic acid was used as a positive control, and dimethyl sulfoxide (DMSO) was used as a solvent control. Melanin content was measured spectrophotometrically at 405 nm. […] Cells were maintained in 5% CO2 at 37 °C. […] The cells were seeded into a 96-well plate (5 × 10^3 cells/well) and stimulated with α-MSH (100 nM, Sigma-Aldrich, Taufkirchen, Germany). […] After 48 h of incubation with inhibitors, cells were solubilized in 1 N sodium hydroxide (1 N, 60 °C, 2 h). In order to measure melanin content, absorbance was measured (λ = 405 nm) using a microplate reader.

mushroom tyrosinase [4] = experiment: Kinetic studies of tyrosinase inhibition (Lineweaver-Burk and secondary plots); assay type: biochemical, Agaricus bisporus; conditions: for Inhibition Mechanism / Inhibition Type: diphenolase activity of mushroom tyrosinase, L-DOPA; for Inhibition Type: Lineweaver-Burk plot; for Ki: n = 3, secondary plots, read-out: Ki ± Standard Error (inhibition constant for enzyme-inhibitor complex)
Experimental: The kinetics of the interaction between TSCs 1–12 and mushroom tyrosinase were determined. […] The inhibition type was determined through creation of the Lineweaver–Burk plot (double reciprocal plot), which enables easier analysis of the Michaelis–Menten plot. […] Inhibition constants Ki were determined from the secondary plots of km (Michaelis constant) versus the inhibitor concentration for competitive inhibition and by the secondary plots of the slope of the lines from the Lineweaver–Burk plot as a function of the inhibitor concentration for mixed-type inhibition. […] They were all competitive inhibitors, whereas meta- and ortho-substituted compounds were mixed inhibitors. The inhibition mechanism for the investigated compounds was also tested. […] L-DOPA was dissolved in a 0.15 mM phosphoric (V) acid solution to a concentration of 5 mM. […] The isolated tyrosinase solution (0.5 mg/mL, 40,000 U/mg) was diluted 10 times in sodium phosphate buffer (0,1 M, pH 6.8). […] The optimal ionic strength and pH for tyrosinase activity were provided by 0.1 M sodium phosphate buffer (pH 6.8). […] The control sample contained the same reagents as the test samples except for the substrate. […] (b) Secondary plot of km versus inhibitor concentrations for determination of Ki for competitive inhibition. (c) Plot to determine the inhibitory mechanism.

SMILES	IC50 (mushroom tyrosinase [1])	Ratio of IC50 of Kojic Acid to IC50 of TSC (mushroom tyrosinase [1])	IC50 ([2]; 48 h)	IC50 [3]	IC50 ([2]; Mus musculus, B16-F10, 48 h)	IC50 ([3]; Mus musculus, B16-F10, 48 h)	Inhibition Mechanism (mushroom tyrosinase [4])	Inhibition Type (mushroom tyrosinase [4])	Ki (mushroom tyrosinase [4])	Inhibition Type (mushroom tyrosinase [4]; listed as Compound 3)	Ratio of IC50 for the inhibition of B16F10 cell proliferation to IC50 for the inhibition of melanin production ([3]; B16F10 cells)	Inhibition Type (mushroom tyrosinase [4]; listed as Compound 9)	Inhibition Type (mushroom tyrosinase [4]; listed as Compound 11)
C/C(=N/NC(N)=S)c1ccccc1 [Acetophenone TSC, acetophenone thiosemicarbazones]	1.5 µM	13.2	–	–	–	–	–	–	–	–	–	–	–
NC(=S)N/N=C\c1ccccc1 [Benzaldehyde TSC, benzaldehyde thiosemicarbazone, reference compound]	3.4 µM	5.6	–	–	–	–	–	–	–	–	–	–	–
C[S+](C)[O-] [DMSO, dimethyl sulfoxide]	–	–	166 µM	8020 µM	–	–	–	–	–	–	–	–	–
O=c1cc(CO)occ1O [Kojic acid, reference compound]	–	–	–	–	153 µM	114 µM	reversible	mixed	–	–	–	–	–
COc1ccccc1C(C)=NNC(N)=S [TSC 1, 2’-methoxyacetophenone thiosemicarbazone]	12.2 µM	1.6	–	–	45.2 µM	39.2 µM	reversible	mixed-type	5 ± 1.4 µM	–	–	–	–
COc1cccc(/C(C)=N/NC(N)=S)c1 [TSC 2, (E)-3’-Methoxyacetophenone thiosemicarbazone]	1.9 µM	10.5	–	–	22.4 µM	–	reversible	mixed-type	1 ± 0.1 µM	–	–	–	–
COc1ccc(/C(C)=N/NC(N)=S)cc1 [TSC 3, (E)-4’-Methoxyacetophenone thiosemicarbazone]	1.8 µM	11.1	–	–	20.3 µM	–	reversible	competitive	0.6 ± 0.01 µM	competitively	–	–	–
CC(=NNC(N)=S)c1ccccc1N [TSC 4, 2’-aminoacetophenone thiosemicarbazone]	11.3 µM	1.8	–	–	–	208 µM	reversible	mixed-type	8 ± 0.9 µM	–	–	–	–
C/C(=N\NC(N)=S)c1cccc(N)c1 [TSC 5, (E)-3’-Aminoacetophenone thiosemicarbazone]	0.65 µM	30.6	–	–	150 µM	88.9 µM	reversible	mixed-type	0.6 ± 0.1 µM	–	–	–	–
C/C(=N\NC(N)=S)c1ccc(N)cc1 [TSC 6, (E)-4’-Aminoacetophenone thiosemicarbazone]	–	–	–	–	155 µM	139 µM	reversible	competitively	0.2 ± 0.06 µM	–	–	–	–
CC(=NNC(N)=S)c1ccccc1O [TSC 7, 2’-hydroxyacetophenone thiosemicarbazone]	1.2 µM	16.5	–	21.7 µM	37.3 µM	< 30 µM	reversible	mixed-type	0.7 ± 0.1 µM	–	–	–	–
C/C(=N\NC(N)=S)c1cccc(O)c1 [TSC 8, (E)-3’-Hydroxyacetophenone thiosemicarbazone]	0.95 µM	20 and 20.9	–	–	103 µM	69.5 µM	reversible	mixed-type	0.6 ± 0.08 µM	–	–	–	–
C/C(=N\NC(N)=S)c1ccc(O)cc1 [TSC 9, (E)-4’-Hydroxyacetophenone thiosemicarbazone]	0.8 µM	20 and 24.9	–	25.2 µM	115 µM	< 30 µM	reversible	competitive	0.6 ± 0.06 µM	–	4.6	competitively	–
C/C(=N\NC(N)=S)c1ccccc1[N+](=O)[O-] [TSC 10, (E)-2’-Nitroacetophenone thiosemicarbazone]	> 150 µM	0.1	–	–	93.2 µM	77.8 µM	reversible	mixed-type	8.6 ± 0.5 µM	–	–	–	–
C/C(=N\NC(N)=S)c1cccc([N+](=O)[O-])c1 [TSC 11, (E)-3’-Nitroacetophenone thiosemicarbazone]	14.2 µM	1.4	–	–	44.8 µM	44 µM	reversible	–	0.4 ± 0.02 µM	–	–	–	competitively
C/C(=N\NC(N)=S)c1ccc([N+](=O)[O-])cc1 [TSC 12, (E)-4’-Nitroacetophenone thiosemicarbazone]	–	12.4	–	–	137 µM	–	reversible	mixed	–	–	–	–	–
